Laboratory results reported in patent publication US20020055528A1, “Artemisinin analogs having antimalarial, antiproliferative, and antitumor activities and chemoselective methods of making the same” (priority 1999, published 2002).
“Also recorded” adds a separate entry of the source. Where two headings read alike, the source gives them in different places.

Key:
[1] = system: HL-60(TB); assay: NCI 60 cell line screen (SRB), Leukemia; format: cell-based
[2] = system: MOLT-4
Description: (§1) The screening assay is performed on 96-well microtitre plates. Relatively high initial inoculation densities are used, in order to permit measurement of “time-zero” values and to enhance the screen's ability to detect and provide some differentiation between antiproliferative and cytotoxic response parameters. […] The inoculated microtitre plates are pre-incubated for 24 hours at 37θC prior to drug additions. The five drug dilutions tested routinely range from 10^−4 to 10^−8 molar. Higher or lower concentration ranges may be selected on a nonroutine basis if appropriate solubility and/or prior biological information or other screening data so dictate. Duplicate wells are prepared for all concentrations, (concentration is often denoted by placing brackets around a number); “time-zero” and “no drug” controls are also provided for each test. The minimum amount of compound required for a one-time evaluation in the routine screen can be calculated from the knowledge that each test requires a total of approximately 40 ml (0.04 liter) of cell culture medium containing the highest desired drug concentration. Thus, the amount (grams) of sample required (assuming an upper test concentration limit of 10^−4 M) is: molecular weight of compound×[…]. After a 48 hour incubation (37θC) with the test compound, the cells are fixed in situ to the bottoms of the microtitre wells by addition of 50 ul of either 50% trichloroacetic acid (for adherent cell lines) or 80% trichloroacetic acid (for settled cell suspension lines), followed by incubation for 60 minutes at 4θC. The cellular protein in each well is assayed using a sulforhodamine B (SRB) stain procedure. Briefly, after discarding the supernatants, the microtitre plates are washed 5 times with deionized water and air-dried. One hundred microliters of SRB solution (0.4% w/v in 1% acetic acid) is added to each microtitre well and incubated for 10 minutes at room temperature. Unbound SRB is removed by washing 5 times with 1 % acetic acid. The plates are air-dried, the bound stain is solubilized with Tris buffer, and the optical densities read at 515 nm. SRB is a bright pink anionic dye which, in dilute acetic acid, binds electrostatically to the basic amino acids of TCA-fixed cells. Cryopreserved master stocks of all the lines are maintained, and cultures used for screening are replaced from the master stock after no more than twenty passages in the screening laboratory. The cell line panel consists of 60 lines, organized into nine, disease-related subpanels including leukemia, non-small-cell lung cancer, colon, CNS, melanoma, ovarian, renal, prostate and breast cancers.
(§2) The response parameters G150 and LC50 are interpolated values representing the concentrations at which the percentage growth (PG) is +50 and −50, respectively:
(§3) GI50 is the concentration for which the PG=+50. At this value the increase from time tzero, in the number or mass of cells in the test well is only 50% as much as the corresponding increase in the control well during this period of the experiment, see Table II. A drug effect of this intensity is interpreted as primary growth inhibition.
(§4) TGI is the concentration for which PG=0. At this value the number or mass of cells in the well at the end of the experiment equals the number or mass of cells in the well at time tzero, see Table III. A drug effect of this intensity is regarded as cytostasis.
(§5) LC50 is the concentration for which the PG=−50. At this value, the number or mass of cells in the test well at the end of the experiment is half that at time tzero, see Table IV. This is interpreted as cytotoxicity.

[3] = system: RPMI-8226; assay: NCI 60 cell line screen (SRB), Leukemia; format: cell-based
[4] = system: NCI-H226; assay: NCI 60 cell line screen (SRB), Non-Small Cell Lung Cancer; format: cell-based
[5] = system: NCI-H522; assay: as above; format: cell-based
[6] = system: HCT-116; assay: NCI 60 cell line screen (SRB), Colon Cancer; format: cell-based
[7] = system: HT29; assay: NCI 60 cell line screen (SRB), Colon Cancer; format: cell-based
[8] = system: KM12; assay: NCI 60 cell line screen (SRB), Colon Cancer; format: cell-based
[9] = system: SNB-75; assay: NCI 60 cell line screen (SRB), CNS Cancer; format: cell-based
[10] = system: LOX IMVI; assay: NCI 60 cell line screen (SRB), Melanoma; format: cell-based
[11] = system: SK-MEL2; assay: NCI 60 cell line screen (SRB), Melanoma; format: cell-based
[12] = system: UACC-257; assay: NCI 60 cell line screen (SRB), Melanoma; format: cell-based
[13] = system: UACC-62; assay: NCI 60 cell line screen (SRB), Melanoma; format: cell-based
[14] = system: IGROVI; assay: NCI 60 cell line screen (SRB), Ovarian Cancer; format: cell-based
[15] = system: OVCAR-5; assay: NCI 60 cell line screen (SRB), Ovarian Cancer; format: cell-based
[16] = system: OVCAR-8; assay: NCI 60 cell line screen (SRB), Ovarian Cancer; format: cell-based
[17] = system: 786-0; assay: NCI 60 cell line screen (SRB), Renal Cancer; format: cell-based
[18] = system: CAKI-1; assay: NCI 60 cell line screen (SRB), Renal Cancer; format: cell-based
[19] = system: 60 cell line panel; assay: NCI 60 cell line screen (SRB), whole panel; format: cell-based
Description: as §1, §2, §3, §4, §5

CC1=C(C=Cc2cccc(C=CC3=C(C)C4CCC(C)C5CCC6(C)OOC45C(O3)O6)c2)OC2OC3(C)CCC4C(C)CCC1C24OO3 (stereo not shown) [VII-g]
Log10TGI ([1]; PG=0): −7.20 log10M
Log10GI50 ([1]; PG=+50): −7.20 log10M
Log10GI50 ([1]; Table IV (LC50, PG=−50)): >−4.00 log10M
drug concentration for cytotoxicity (percentage growth −50) [2]: greater than 10^−4 M
drug concentration for primary growth inhibition (percentage growth +50) ([2]; MOLT-4, FIGS. 6a-6e): > 10^−7 molar
Log10GI50 ([2]; MOLT-4, PG=+50): −7.30 log10M
Log10TGI ([2]; MOLT−4, PG=0): −7.30 log10M
Log10GI50 ([2]; Table IV (LC50, PG=−50), MOLT−4): >−4.00 log10M
Log10TGI ([3]; PG=0): −7.25 log10M
Log10GI50 ([3]; PG=+50): −7.25 log10M
Log10GI50 ([3]; Table IV (LC50, PG=−50)): >−4.00 log10M
Log10TGI ([4]; PG=0): >−4.00 log10M
Log10GI50 ([4]; PG=+50): −4.91 log10M
Log10GI50 ([4]; Table IV (LC50, PG=−50)): >−4.00 log10M
Log10TGI ([5]; PG=0): >−4.00 log10M
Log10GI50 ([5]; PG=+50): −6.99 log10M
Log10GI50 ([5]; Table IV (LC50, PG=−50)): >−4.00 log10M
Log10TGI ([6]; PG=0): >−4.00 log10M
Log10 GI50 (PG=+50) or Log10 LC50 (PG=−50), as given per row condition ([6]; PG=+50): −7.13 log10M
Log10 GI50 (PG=+50) or Log10 LC50 (PG=−50), as given per row condition ([6]; Table IV (LC50, PG=−50)): >−4.00 log10M
Log10TGI ([7]; PG=0): >−4.00 log10M
Log10GI50 ([7]; PG=+50): −6.88 log10M
Log10GI50 ([7]; Table IV (LC50, PG=−50)): >−4.00 log10M
Log10TGI ([8]; PG=0): >−4.00 log10M
Log10GI50 ([8]; PG=+50): −7.27 log10M
Log10GI50 ([8]; Table IV (LC50, PG=−50)): >−4.00 log10M
Log10 GI50 (PG=+50) or LC50 (PG=−50) ([9]; PG=+50): −6.45 log10M
Log10 GI50 (PG=+50) or LC50 (PG=−50) ([9]; Table IV (LC50, PG=−50)): >−4.00 log10M
Log10TGI ([10]; PG=0): −5.06 log10M
Log10GI50 ([10]; PG=+50): −7.07 log10M
Log10GI50 ([10]; Table IV (LC50, PG=−50)): >−4.00 log10M
Log10TGI ([11]; PG=0): >−4.00 log10M
Log10 GI50 or LC50 (per conditions) ([11]; PG=+50): −6.39 log10M
Log10 GI50 or LC50 (per conditions) ([11]; Table IV (LC50, PG=−50)): >−4.00 log10M
Log10TGI ([12]; PG=0): −4.58 log10M
Log10 GI50 (PG=+50) or Log10 LC50 (PG=−50) ([12]; PG=+50): −7.09 log10M
Log10 GI50 (PG=+50) or Log10 LC50 (PG=−50) ([12]; Table IV (LC50, PG=−50)): >−4.00 log10M
Log10TGI ([13]; PG=0): >−4.00 log10M
Log10GI50 ([13]; PG=+50): −5.46 log10M
Log10GI50 ([13]; Table IV (LC50, PG=−50)): >−4.00 log10M
Log10TGI ([14]; PG=0): −4.21 log10M
Log10GI50 ([14]; PG=+50): −5.16 log10M
Log10GI50 ([14]; Table IV (LC50, PG=−50)): >−4.00 log10M
Log10TGI ([15]; PG=0): >−4.00 log10M
Log10GI50 ([15]; PG=+50): −6.58 log10M
Log10GI50 ([15]; Table IV (LC50, PG=−50)): >−4.00 log10M
Log10TGI ([16]; PG=0): >−4.00 log10M
Log10GI50 ([16]; PG=+50): −6.70 log10M
Log10GI50 ([16]; Table IV (LC50, PG=−50)): >−4.00 log10M
Log10TGI ([17]; PG=0): >−4.00 log10M
Log10GI50 ([17]; PG=+50): −6.10 log10M
Log10GI50 ([17]; Table IV (LC50, PG=−50)): >−4.00 log10M
Log10GI50 ([18]; PG=+50): −6.22 log10M
Log10GI50 ([18]; Table IV (LC50, PG=−50)): >−4.00 log10M
MG MID of Log10GI50 (Table IV) ([19]; Table IV (LC50), mean over the panel): −4.02 log10M
Delta of Log10GI50 (Table IV) ([19]; Table IV (LC50), panel summary): 0.94
Range of Log10GI50 (Table IV) ([19]; Table IV (LC50), panel summary): 0.96
potency in words, compared with artemisinin and paclitaxel ([19]; Tables II, III and IV): in most instances are as potent and in some instances more potent than paclitaxel; also recorded: more potent than artemisinin and equivalent to and in many instances higher in potency than paclitaxel
MG MID of Log10GI50 ([19]; mean over the panel): −6.58 log10M
MG MID of Log10TGI ([19]; mean over the panel): −4.32 log10M
Delta of Log10GI50 ([19]; panel summary): 0.93
Delta of Log10TGI ([19]; panel summary): 2.51
Range of Log10GI50 ([19]; panel summary): 2.60
Range of Log10TGI ([19]; panel summary): 2.82
